Assay results reported in ChEMBL document CHEMBL4507290 (2021).

What was measured:
[1] = molecular target: Tyrosine-protein kinase ABL1 (Homo sapiens) (UniProt P00519); details: Compound concentration 1000.0 nM
[2] = system: Tyrosine-protein kinase ABL1 (Homo sapiens), P00519 [F317L]; details: Compound concentration 1000.0 nM
[3] = system: Tyrosine-protein kinase ABL1 (Homo sapiens), P00519 [F317I]; details: Compound concentration 1000.0 nM
[4] = molecular target: Delta-type opioid receptor (Homo sapiens) (UniProt P41143); details: Compound concentration 10.0 uM
[5] = system: Tyrosine-protein kinase ABL1 (Homo sapiens), P00519 [Q252H]; details: Compound concentration 1000.0 nM
[6] = system: Tyrosine-protein kinase ABL1 (Homo sapiens), P00519 [Q252H]; details: Compound concentration 1000.0 nM; remark: listed apart in the source
[7] = system: Tyrosine-protein kinase ABL1 (Homo sapiens), P00519 [E255K]; details: Compound concentration 1000.0 nM
[8] = system: Tyrosine-protein kinase ABL1 (Homo sapiens), P00519 [T315I]; details: Compound concentration 1000.0 nM
D(2) dopamine receptor [9] = molecular target: T1, D(2) dopamine receptor (Homo sapiens, UniProt P14416); details: Compound concentration 10.0 uM
[10] = system: Serine/threonine-protein kinase B-raf (Homo sapiens), P15056 [V600E]; details: Compound concentration 1000.0 nM
[11] = molecular target: Serine/threonine-protein kinase B-raf (Homo sapiens) (UniProt P15056); details: Compound concentration 1000.0 nM
[12] = molecular target: MAP kinase-activated protein kinase 5 (Homo sapiens) (UniProt Q8IW41); details: Compound concentration 1000.0 nM
[13] = molecular target: Hepatocyte growth factor receptor (Homo sapiens) (UniProt P08581); details: Compound concentration 1000.0 nM
[14] = molecular target: Kappa-type opioid receptor (Homo sapiens) (UniProt P41145); details: Compound concentration 10.0 uM
D(2) dopamine receptor [15] = molecular target: T1, D(2) dopamine receptor; assay: GPCRScan assay: inhibition of D2; design: radioligand conc. used [nm] 0.4 – 1.0, parental cells stable fibroblast
[16] = molecular target: Inhibitor of nuclear factor kappa-B kinase subunit epsilon (Homo sapiens) (UniProt Q14164); details: Compound concentration 1000.0 nM
[17] = molecular target: T2, Sodium-dependent dopamine transporter (Homo sapiens, UniProt Q01959); assay: […] binding assay (SLC6A3)
[18] = molecular target: T2, Sodium-dependent dopamine transporter; assay: GPCRScan assay: inhibition of DAT; design: radioligand conc. used [nm] 3.6 – 16.0, parental cells stable HEK
[19] = molecular target: 5-hydroxytryptamine receptor 2B (Homo sapiens) (UniProt P41595); details: Compound concentration 10.0 uM
[20] = molecular target: T2, Sodium-dependent dopamine transporter; details: Compound concentration 10.0 uM
[21] = molecular target: cAMP-dependent protein kinase catalytic subunit alpha (Homo sapiens) (UniProt P17612); details: Compound concentration 1000.0 nM
[22] = molecular target: Alpha-1A adrenergic receptor (Homo sapiens) (UniProt P35348); details: Compound concentration 10.0 uM
[23] = GPCRScan assay: inhibition of GABA/PBR; design: species or system Rattus norvegicus; radioligand conc. used [nm] 0.3 – 2.0, parental cells brain tissue

T2 sequence (Q01959 whole entry): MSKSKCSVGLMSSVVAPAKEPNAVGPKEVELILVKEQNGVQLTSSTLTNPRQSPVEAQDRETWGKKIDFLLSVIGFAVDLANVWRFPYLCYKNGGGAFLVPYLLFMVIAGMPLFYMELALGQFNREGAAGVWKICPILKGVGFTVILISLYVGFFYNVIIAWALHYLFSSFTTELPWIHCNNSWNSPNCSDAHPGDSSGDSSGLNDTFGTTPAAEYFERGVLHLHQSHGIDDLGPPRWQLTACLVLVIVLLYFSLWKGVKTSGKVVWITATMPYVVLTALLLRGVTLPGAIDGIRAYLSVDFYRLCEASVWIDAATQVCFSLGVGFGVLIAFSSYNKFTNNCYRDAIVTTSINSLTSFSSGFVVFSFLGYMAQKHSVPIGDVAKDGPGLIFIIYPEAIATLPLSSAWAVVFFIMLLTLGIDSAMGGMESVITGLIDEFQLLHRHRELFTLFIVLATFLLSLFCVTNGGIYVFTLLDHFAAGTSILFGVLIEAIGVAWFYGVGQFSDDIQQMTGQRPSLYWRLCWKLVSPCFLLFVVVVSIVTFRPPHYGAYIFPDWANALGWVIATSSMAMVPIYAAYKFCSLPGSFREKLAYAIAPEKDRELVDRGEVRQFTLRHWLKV
T1 sequence (P14416 whole entry): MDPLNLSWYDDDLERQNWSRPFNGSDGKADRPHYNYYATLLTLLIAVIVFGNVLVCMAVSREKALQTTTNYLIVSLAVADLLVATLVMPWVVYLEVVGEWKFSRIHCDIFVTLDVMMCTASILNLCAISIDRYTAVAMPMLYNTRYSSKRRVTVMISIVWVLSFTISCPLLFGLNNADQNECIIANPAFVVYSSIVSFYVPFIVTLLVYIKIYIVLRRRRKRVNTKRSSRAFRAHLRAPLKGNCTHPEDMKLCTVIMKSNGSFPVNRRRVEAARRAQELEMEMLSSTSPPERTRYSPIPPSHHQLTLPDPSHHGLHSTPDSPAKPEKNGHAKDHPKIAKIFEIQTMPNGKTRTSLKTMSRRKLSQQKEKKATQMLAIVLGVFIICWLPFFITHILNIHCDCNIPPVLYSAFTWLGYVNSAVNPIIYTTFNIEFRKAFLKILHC
Sequence of Alpha-1A adrenergic receptor (Homo sapiens) (P35348 whole entry): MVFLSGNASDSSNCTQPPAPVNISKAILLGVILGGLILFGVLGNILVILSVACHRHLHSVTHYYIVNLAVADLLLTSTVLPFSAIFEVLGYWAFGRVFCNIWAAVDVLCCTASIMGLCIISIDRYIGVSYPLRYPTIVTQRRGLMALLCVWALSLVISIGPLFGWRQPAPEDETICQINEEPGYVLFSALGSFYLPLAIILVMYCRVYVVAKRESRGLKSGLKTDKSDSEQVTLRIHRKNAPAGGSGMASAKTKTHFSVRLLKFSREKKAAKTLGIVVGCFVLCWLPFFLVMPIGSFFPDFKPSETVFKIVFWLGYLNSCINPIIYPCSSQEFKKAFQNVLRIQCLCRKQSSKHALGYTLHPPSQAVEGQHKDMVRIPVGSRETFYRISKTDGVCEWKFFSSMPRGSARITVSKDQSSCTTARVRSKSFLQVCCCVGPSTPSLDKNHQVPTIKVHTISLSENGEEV
Sequence of 5-hydroxytryptamine receptor 2B (Homo sapiens) (P41595 whole entry): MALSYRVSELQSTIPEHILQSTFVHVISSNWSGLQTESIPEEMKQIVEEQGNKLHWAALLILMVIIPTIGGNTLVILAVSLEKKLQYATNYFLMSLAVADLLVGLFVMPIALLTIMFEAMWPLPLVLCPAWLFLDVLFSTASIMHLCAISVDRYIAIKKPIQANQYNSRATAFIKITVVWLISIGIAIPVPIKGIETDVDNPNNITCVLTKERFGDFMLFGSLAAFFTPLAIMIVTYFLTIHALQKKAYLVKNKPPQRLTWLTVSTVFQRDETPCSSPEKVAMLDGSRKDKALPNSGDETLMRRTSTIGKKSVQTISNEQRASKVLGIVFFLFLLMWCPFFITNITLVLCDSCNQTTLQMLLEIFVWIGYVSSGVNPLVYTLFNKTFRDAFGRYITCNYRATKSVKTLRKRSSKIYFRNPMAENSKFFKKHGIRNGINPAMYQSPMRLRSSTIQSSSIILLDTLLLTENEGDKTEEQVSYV
Sequence of MAP kinase-activated protein kinase 5 (Homo sapiens) (Q8IW41 whole entry): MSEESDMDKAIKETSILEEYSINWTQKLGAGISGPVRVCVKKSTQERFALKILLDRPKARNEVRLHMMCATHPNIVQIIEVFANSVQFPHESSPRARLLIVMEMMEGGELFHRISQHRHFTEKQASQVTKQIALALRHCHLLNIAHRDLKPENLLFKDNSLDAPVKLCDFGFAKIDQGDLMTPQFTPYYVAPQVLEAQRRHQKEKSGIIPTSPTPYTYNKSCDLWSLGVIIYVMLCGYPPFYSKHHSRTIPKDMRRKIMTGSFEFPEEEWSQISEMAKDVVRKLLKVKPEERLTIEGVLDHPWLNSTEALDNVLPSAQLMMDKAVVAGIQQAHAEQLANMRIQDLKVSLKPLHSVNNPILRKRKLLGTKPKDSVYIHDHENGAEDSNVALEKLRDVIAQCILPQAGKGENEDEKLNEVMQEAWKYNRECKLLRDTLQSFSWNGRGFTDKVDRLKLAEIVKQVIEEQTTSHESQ
Sequence of Kappa-type opioid receptor (Homo sapiens) (P41145 whole entry): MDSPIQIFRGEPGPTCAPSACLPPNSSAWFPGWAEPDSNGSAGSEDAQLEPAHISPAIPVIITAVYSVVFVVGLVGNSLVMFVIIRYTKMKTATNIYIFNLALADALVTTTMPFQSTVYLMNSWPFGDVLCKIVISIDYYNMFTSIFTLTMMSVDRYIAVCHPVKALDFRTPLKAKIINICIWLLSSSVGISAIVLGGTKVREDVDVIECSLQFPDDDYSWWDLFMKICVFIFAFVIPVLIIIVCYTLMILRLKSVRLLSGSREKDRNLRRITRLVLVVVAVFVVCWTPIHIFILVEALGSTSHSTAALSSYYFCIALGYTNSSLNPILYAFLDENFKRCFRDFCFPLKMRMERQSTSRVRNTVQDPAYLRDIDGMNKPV
Sequence of Inhibitor of nuclear factor kappa-B kinase subunit epsilon (Homo sapiens) (Q14164 whole entry): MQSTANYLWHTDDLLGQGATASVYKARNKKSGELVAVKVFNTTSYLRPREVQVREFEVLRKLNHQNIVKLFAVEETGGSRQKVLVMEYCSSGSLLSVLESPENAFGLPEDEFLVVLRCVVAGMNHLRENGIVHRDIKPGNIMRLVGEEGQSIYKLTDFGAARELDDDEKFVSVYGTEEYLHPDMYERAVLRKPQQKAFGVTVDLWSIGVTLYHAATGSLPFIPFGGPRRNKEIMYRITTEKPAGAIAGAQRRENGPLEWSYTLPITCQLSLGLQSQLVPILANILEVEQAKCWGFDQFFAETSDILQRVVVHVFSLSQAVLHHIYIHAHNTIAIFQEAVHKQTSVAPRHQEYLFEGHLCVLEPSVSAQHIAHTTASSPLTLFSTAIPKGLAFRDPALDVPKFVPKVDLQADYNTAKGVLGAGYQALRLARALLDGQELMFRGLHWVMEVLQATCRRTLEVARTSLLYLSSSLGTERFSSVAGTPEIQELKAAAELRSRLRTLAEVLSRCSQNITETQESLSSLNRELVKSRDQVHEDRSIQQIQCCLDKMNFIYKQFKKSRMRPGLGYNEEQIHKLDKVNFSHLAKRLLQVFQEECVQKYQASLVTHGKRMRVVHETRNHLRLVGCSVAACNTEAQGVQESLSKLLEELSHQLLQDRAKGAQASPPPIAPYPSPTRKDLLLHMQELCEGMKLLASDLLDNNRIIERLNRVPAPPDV
Sequence of Delta-type opioid receptor (Homo sapiens) (P41143 whole entry): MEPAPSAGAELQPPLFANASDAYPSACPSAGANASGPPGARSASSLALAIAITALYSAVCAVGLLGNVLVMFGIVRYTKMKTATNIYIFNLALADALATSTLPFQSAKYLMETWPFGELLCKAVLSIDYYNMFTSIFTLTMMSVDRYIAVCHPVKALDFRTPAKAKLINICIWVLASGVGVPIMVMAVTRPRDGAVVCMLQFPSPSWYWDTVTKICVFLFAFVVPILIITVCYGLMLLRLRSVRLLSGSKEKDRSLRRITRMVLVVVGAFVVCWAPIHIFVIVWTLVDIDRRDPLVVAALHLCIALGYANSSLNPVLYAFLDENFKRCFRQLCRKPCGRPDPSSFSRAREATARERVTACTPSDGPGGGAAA
Sequence of Serine/threonine-protein kinase B-raf (Homo sapiens) (P15056 whole entry): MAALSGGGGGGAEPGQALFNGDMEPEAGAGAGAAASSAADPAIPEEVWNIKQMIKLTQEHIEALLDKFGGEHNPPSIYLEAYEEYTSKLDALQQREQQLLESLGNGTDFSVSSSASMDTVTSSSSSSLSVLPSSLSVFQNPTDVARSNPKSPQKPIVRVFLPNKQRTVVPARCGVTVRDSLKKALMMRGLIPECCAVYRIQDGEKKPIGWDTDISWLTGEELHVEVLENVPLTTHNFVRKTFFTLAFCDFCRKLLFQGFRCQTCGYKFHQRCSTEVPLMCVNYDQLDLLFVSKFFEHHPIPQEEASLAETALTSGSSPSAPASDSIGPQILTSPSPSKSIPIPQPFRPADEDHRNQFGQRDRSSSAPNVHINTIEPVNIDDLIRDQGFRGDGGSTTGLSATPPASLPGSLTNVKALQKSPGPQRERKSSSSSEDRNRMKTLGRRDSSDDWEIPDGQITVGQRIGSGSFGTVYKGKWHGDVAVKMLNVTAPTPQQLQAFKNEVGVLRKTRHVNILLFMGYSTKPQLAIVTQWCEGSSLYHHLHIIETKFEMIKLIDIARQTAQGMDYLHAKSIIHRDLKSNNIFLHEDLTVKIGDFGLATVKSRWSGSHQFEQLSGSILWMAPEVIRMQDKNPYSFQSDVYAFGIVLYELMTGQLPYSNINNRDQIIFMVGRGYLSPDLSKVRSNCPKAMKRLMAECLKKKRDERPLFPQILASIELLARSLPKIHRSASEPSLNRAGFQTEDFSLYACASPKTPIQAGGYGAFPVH
Sequence of Serine/threonine-protein kinase B-raf (Homo sapiens), P15056 [V600E] (P15056 whole entry V600E): as the sequence (P15056 whole entry) above, with V600E counted along it

With `CN([C@@H]1CCc2c(CC(=O)O)c3cc(S(C)(=O)=O)ccc3n2C1)S(=O)(=O)c1ccc(F)cc1` as the compound, how does the residual activity [1] read?
The residual activity was 74%.

And the residual activity [2]?
Its residual activity is 90%.

And the residual activity [3]?
The residual activity was 76%.

What about the inhibition [4] of the same compound?
Its inhibition is 20%.

What about the residual activity [5] of the same compound?
The residual activity was 98%.

And the residual activity [6]?
Its residual activity is 79%.

And the residual activity [7]?
Its residual activity is 100%.

And the residual activity [8]?
The residual activity was 88%.

What about the inhibition (D(2) dopamine receptor [9]) of the same compound?
Its inhibition is -3.84%.

What about the residual activity [10] of the same compound?
The residual activity was 90%.

And the residual activity [11]?
Its residual activity is 98%.

With `CN([C@@H]1CCc2c(CC(=O)O)c3ccccc3n2C1)S(=O)(=O)c1ccc(F)cc1` [MK-7246] as the compound, how does the residual activity [12] read?
Its residual activity is 94%.

What about the residual activity [13] of the same compound?
The residual activity was 100%.

What about the inhibition [14] of the same compound?
Its inhibition is 4.56%.

What about the Ki (D(2) dopamine receptor [15]) of the same compound?
The Ki was 3750 nM.

And the residual activity [16]?
Its residual activity is 84%.

And the Ki [17]?
The Ki was 373 nM (not active).

And the Ki ([18]; read-out: Ki)?
The Ki was 283 nM.

And the Ki ([18]; read-out: pKi (converted))?
Its Ki is 316 nM.

What about the inhibition [19] of the same compound?
The inhibition was -4.07%.

What about the inhibition [20] of the same compound?
Its inhibition is 77.1%.

And the residual activity [21]?
The residual activity was 100%.

And the inhibition [22]?
Its inhibition is -4.89%.

And the Ki [23]?
Its Ki is 1120 nM.

What about the pKi [23] of the same compound?
Its pKi is 5.95.
